Assay results taken from patent US7273866B2, “2-aryl thiazole derivatives as KCNQ modulators” (Bristol-Myers Squibb Company, priority 2002, dated 2007).

Tested on: KCNQ channels
Experiment: Thallium flux assay for KCNQ channel openers
Format: cell-based
Settings: HEK-293 cells stably transfected with a KCNQ family member; for Min. conc. response: minimal active concentration: lowest concentration giving signal amplitude >= four standard deviations of negative controls; for EC50: thallium flux, 10 point concentration series
Description: Thallium Flux Assay for KCNQ channel Openers. The thallium assay is a modification of that published by Weaver and is referenced in its entirety (Weaver, C. D. WO 02/31508, 2002).
Approximately 20,000 cells/well of an HEK-293 cell line stably transfected with one of the members of the KCNQ family were plated into clear-bottom, black-walled, poly-D-lysine coated, 384 well assay plates in 20 μl/well of low chloride plating medium. Low chloride plating medium was composed of the following: sodium gluconate, 109 mM; potassium gluconate, 5.4 mM; hemi-calcium gluconate, 3.6 mM; magnesium sulfate, 0.8 mM; sodium bicarbonate, 26.2 mM; sodium phosphate monobasic, 1.2 mM; glutamine, 2 mM; glucose, 5 mM; 4-(2-hydroxyethyl)-1-piperazineethanesulfonic acid (HEPES) (pH 7.3) 10 mM, MEM vitamin solution (10× concentration of vitamins, Gibco/LifeTechnologies 11120-052) and MEM amino acid solution (1× concentration of amino acids, Gibco/LifeTechnologies 11130-051).
Following overnight incubation in a 5% CO2 incubator at 37° C., the cells in the plates were loaded with 20 μl/well of a dye loading solution containing the commercially available thallium-sensitive fluorescent dye BTC-AM, the acetomethoxy ester of BTC (see U.S. Pat. No. 5,501,980) (2 μM) and pluronic acid F-127 (Molecular Probes P 6867) (0.02% w/v) in chloride free assay buffer. Chloride free assay buffer was composed of the following: sodium gluconate, 140 mM; potassium gluconate, 2.5 mM; hemi-calcium gluconate, 6 mM; hemi-magnesium gluconate, 2 mM; glucose, 5 mM; HEPES (pH 7.3), 10 mM.
Following incubation in the dye loading solution for from 45-90 min at room temperature, the dye loading solution was removed by aspiration and replaced with 40 μl/well of chloride free assay buffer.
Prior to addition to cell plates, test compound and standard compounds were dissolved in DMSO to 3 mM concentration. Compounds were then diluted from the 3 mM stock to 100-fold over the final assay concentration in DMSO. Finally, compounds in DMSO were diluted from 100-fold over the final assay concentration to 5-fold over the final assay concentration in chloride free assay buffer.
Ten μl/well of compounds at 5-fold over the final assay concentration were then added to the cell plates. This represents a 1:5 dilution, yielding the final test concentration. The wells used for test compounds were A1-P20. Wells A21-P22 contained a standard opener and a maximally efficacious concentration (positive control). Wells A23-P24 contained chloride free assay buffer containing 1% DMSO (negative control).
Following addition of test compounds, the plates were loaded onto the Molecular Devices FLIPR. The 488 nm line of the argon laser was used to excite the BTC and the emission filter was a 540(+/−30) nm. Images were collected at 1 Hz. Ten seconds of baseline were collected and then the FLIPR was used to add 13 μl/well of a stimulus buffer composed of 7.5 mM Tl2SO4 in chloride free assay buffer. Images were collected for an additional 60 seconds.
For data analysis, the amplitude of the average of the negative controls was subtracted from all wells. The amplitudes of the test compounds were then compared to the value of four standard deviations of the negative control wells. The lowest concentration of a test compound sufficient to generate a signal amplitude greater than or equal to four standard deviations from the amplitude of the negative controls was defined as the minimal active concentration.
For generating EC50 values, compounds were serially diluted in 1:3 volume increments to produce a 10 point concentration series. EC50 values were calculated by fitting the resulting amplitudes to a single-site logistic equation. EC50 was defined as the concentration of test compound required to yield 50% of the maximal response. Maximal response (Maximal opening) was the largest signal amplitude divided by the negative control amplitude generated by any concentration of a test compound. […]

| EC50 | Compound | Min. conc. response |
| --- | --- | --- |
| 50 to 1000 nM | COc1cccc(-c2nc(C(F)(F)F)c(C(=O)N[C@@H](C)c3cccc(OC(F)(F)F)c3)s2)c1 (stereo in doubt) [Example 24, 2-(3-methoxyphenyl)-4-(trifluoromethyl)-N-[1-[3-(trifluoromethoxy)phenyl]ethyl]-5-thiazolecarboxamide] | 3 µM |
| < 50 nM | CC(NC(=O)c1sc(-c2ccc(F)cc2)nc1C(F)(F)F)c1cccc(OC(F)(F)F)c1 (stereo not drawn) [Example 17, 2-(4-fluorophenyl)-4-(trifluoromethyl)-N-[1-[3-(trifluoromethoxy)phenyl]ethyl]-5-thiazolecarboxamide] | 0.3 µM |
| 50 to 1000 nM | COc1ccccc1-c1nc(C(F)(F)F)c(C(=O)N[C@@H](C)c2cccc(N3CCOCC3)c2)s1 [Example 23, 2-(2-methoxyphenyl)-4-(trifluoromethyl)-N-[1-[3-(1-morpholinyl)phenyl]ethyl]-5-thiazolecarboxamide] | 3 µM |
| 1000 to 20000 nM | COc1ccccc1-c1nc(C(F)(F)F)c(C(=O)NC(C)c2cccc(N(C)C)c2)s1 (stereo not drawn) [Example 25, 2-(2-methoxyphenyl)-4-(trifluoromethyl)-N-[1-[3-(dimethylamino)phenyl]ethyl]-5-thiazolecarboxamide] | 3 µM |
| 50 to 1000 nM | CC(NC(=O)c1sc(-c2ccccc2F)nc1C(F)(F)F)c1cccc(N(C)C)c1 (stereo not drawn) [Example 26, 2-(2-fluorophenyl)-4-(trifluoromethyl)-N-[1-[3-(dimethylamino)phenyl]ethyl]-5-thiazolecarboxamide] | 3 µM |
| 1000 to 20000 nM | COc1ccc(-c2nc(C(F)(F)F)c(C(=O)NC(C)c3cccc(OC(F)(F)F)c3)s2)cc1 (stereo not drawn) [Example 28, 2-(4-methoxyphenyl)-4-(trifluoromethyl)-N-[1-[3-(trifluoromethoxy)phenyl]ethyl]-5-thiazolecarboxamide] | 10 µM |
| 50 to 1000 nM | COc1ccc(-c2nc(C(F)(F)F)c(C(=O)NC(C)c3cccc(OC(F)(F)F)c3)s2)cc1OC (stereo not drawn) [Example 29, 2-(3,4-dimethoxyphenyl)-4-(trifluoromethyl)-N-[1-[3-(trifluoromethoxy)phenyl]ethyl]-5-thiazolecarboxamide] | 3 µM |
| 1000 to 20000 nM | COc1ccc(-c2nc(C(F)(F)F)c(C(=O)N[C@@H](C)c3cccc(N4CCOCC4)c3)s2)c(OC)c1 [Example 31, 2-(2,4-dimethoxyphenyl)-4-(trifluoromethyl)-N-[1-[3-(4-morpholinyl)phenyl]ethyl]-5-thiazolecarboxamide] | 3 µM |
| < 50 nM | COc1ccccc1-c1nc(C(F)(F)F)c(C(=O)NC(C)c2cccc(N3CCCCC3)c2)s1 (stereo not drawn) [Example 32, 2-(2-methoxyphenyl)-4-(trifluoromethyl)-N-[1-[3-(1-piperidinyl)phenyl]ethyl]-5-thiazolecarboxamide] | 0.3 µM |
| < 50 nM | COc1ccccc1-c1nc(C(F)(F)F)c(C(=O)NC(C)c2cccc(N(C)Cc3ccco3)c2)s1 (stereo not drawn) [Example 34, 2-(2-methoxyphenyl)-4-(trifluoromethyl)-N-[1-[3-[(2-furanylmethyl)methylamino]phenyl]ethyl]-5-thiazolecarboxamide] | 0.3 µM |
| 50 to 1000 nM | CC(NC(=O)c1sc(-c2ccccc2F)nc1C(F)(F)F)c1cccc(N(C)Cc2ccco2)c1 (stereo not drawn) [Example 35, 2-(2-fluorophenyl)-4-(trifluoromethyl)-N-[1-[3-[(2-furanylmethyl)methylamino]phenyl]ethyl]-5-thiazolecarboxamide] | 0.3 µM |
| 1000 to 20000 nM | COc1ccc(-c2nc(C(F)(F)F)c(C(=O)NC(C)c3cccc(CN4CCCC4)c3)s2)cc1OC (stereo not drawn) [Example 36, 2-(3,4-dimethoxyphenyl)-4-(trifluoromethyl)-N-[1-[3-[(1-pyrrolidinyl)methyl]phenyl]ethyl]-5-thiazolecarboxamide] | 10 µM |
| 1000 to 20000 nM | CCN(CC)Cc1cccc(C(C)NC(=O)c2sc(-c3cccc4ccccc34)nc2C(F)(F)F)c1 (stereo not drawn) [Example 38, 2-(1-naphthyl)-4-(trifluoromethyl)-N-[1-[3-[(diethylamino)methyl]phenyl]ethyl]-5-thiazolecarboxamide] | 30 µM |

Further lines, the compound ahead of its results:

| Compound | EC50 | Min. conc. response |
| --- | --- | --- |
| COc1cccc([C@H](C)NC(=O)c2sc(-c3cccc(N4CCOCC4)c3)nc2C(F)(F)F)c1 (stereo in doubt) [Example 99] |  | 3 µM |
| COc1ccccc1-c1nc(C(F)(F)F)c(C(=O)NC(C)c2cccc(OC(F)(F)F)c2)s1 (stereo not drawn) [Example 18, 2-(2-methoxyphenyl)-4-(trifluoromethyl)-N-[1-[3-(trifluoromethoxy)phenyl]ethyl]-5-thiazolecarboxamide] | < 50 nM | 0.3 µM |
| COc1ccccc1-c1nc(C(F)(F)F)c(C(=O)NC(C)c2cccc(C(F)(F)F)c2)s1 (stereo not drawn) [Example 19, 2-(2-methoxyphenyl)-4-(trifluoromethyl)-N-[1-[3-(trifluoromethyl)phenyl]ethyl]-5-thiazolecarboxamide] | < 50 nM | 3 µM |
| CC(NC(=O)c1sc(-c2ccc3c(c2)OCO3)nc1C(F)(F)F)c1cccc(OC(F)(F)F)c1 (stereo not drawn) [Example 20, 2-(3,4-dioxolanylphenyl)-4-(trifluoromethyl)-N-[1-[3-(trifluoromethoxy)phenyl]ethyl]-5-thiazolecarboxamide] | 1000 to 20000 nM | 0.3 µM |
| CC(NC(=O)c1sc(-c2ccccc2F)nc1C(F)(F)F)c1cccc(C(F)(F)F)c1 (stereo not drawn) [Example 22, 2-(2-fluorophenyl)-4-(trifluoromethyl)-N-[1-[3-(trifluoromethyl)phenyl]ethyl]-5-thiazolecarboxamide] | < 50 nM | 0.3 µM |
| COc1ccccc1-c1nc(C(F)(F)F)c(C(=O)NCc2cccc(F)c2)s1 [Example 27, 2-(2-methoxyphenyl)-4-(trifluoromethyl)-N-(3-fluorophenyl)methyl-5-thiazolecarboxamide] | 1000 to 20000 nM | 3 µM |
| COc1ccc(-c2nc(C(F)(F)F)c(C(=O)NC(C)c3cccc(OC(F)(F)F)c3)s2)c(OC)c1 (stereo not drawn) [Example 30, 2-(2,4-dimethoxyphenyl)-4-(trifluoromethyl)-N-[1-[3-(trifluoromethoxy)phenyl]ethyl]-5-thiazolecarboxamide] | 50 to 1000 nM | 3 µM |
| COc1ccccc1-c1nc(C(F)(F)F)c(C(=O)NC(C)c2cccc(N3CCCC3)c2)s1 (stereo not drawn) [Example 33, 2-(2-methoxyphenyl)-4-(trifluoromethyl)-N-[1-[3-(1-pyrrolidinyl)phenyl]ethyl]-5-thiazolecarboxamide] | 50 to 1000 nM | 3 µM |
| CC(NC(=O)c1sc(-c2ccccc2F)nc1C(F)(F)F)c1cccc(CN2CCOCC2)c1 (stereo not drawn) [Example 37, 2-(2-fluorophenyl)-4-(trifluoromethyl)-N-[1-[3-[(4-morpholinyl)methyl]phenyl]ethyl]-5-thiazolecarboxamide] | 1000 to 20000 nM | 3 µM |
| COc1ccccc1-c1nc(C(F)(F)F)c(C(=O)NC(C)c2cccc(N)c2)s1 (stereo not drawn) [Example 39, 2-(2-methoxyphenyl)-4-(trifluoromethyl)-N-[1-(3-aminophenyl)ethyl]-5-thiazolecarboxamide] | 1000 to 20000 nM | 10 µM |
